What was measured:
Assay type in all cases: physicochemical
[1] = solubility test of crystalline forms in 0.1M HCl (Chinese Pharmacopoeia 2010); conditions: 300 mg in 6 ml 0.1M HCl, 25° C.±2° C.
Method: The solubility of crystalline forms A, B, C and D was measured in accordance with the solubility test described in “Chinese Pharmacopoeia 2010”, Topic and Requirement 15. A crystalline form of azilsartan was grinded into powder. The powder (300 mg) was added to 6 ml of 0.1M HCl as the solvent at 25° C.±2° C. […] The total test time was 30 minutes. The solid was deemed as dissolved when no solid was detected in the mixture by human eyes. The solubility data of crystalline forms A, B, C and D of azilsartan are as shown below.

[2] = Thermal Stability of crystalline form A
Method: (§1) A layer of crystalline form A having a thickness of less than 5 mm was place in a flat weighing bottle. […] Samples were taken out at 6 days, 11 days and 16 days and examined for purity by HPLC, appearance and crystalline form. The conditions for the HPLC measurements are as shown below. • Instrument: Agilent 1200HPLC • Column: Agilent Eclipse XDB-C18 4.6*150 mm, 5 μm • Detection wavelength: 254 nm • Mobile phase: A phase 10 mM ammonium acetate (pH=3.5) and B phase acetonitrile [table]

[3] = Light Stability of crystalline form A; conditions: light 4500+/−500 Lux, 6 days
Method: as §1

[4] = 0 day (initial sample, before stress)

solubility [1]: very soluble
Appearance [2, 4]: White or off-
Crystalline form [2, 4]: Form A
RT* (min.) 2.89 (HPLC peak) [2, 4]: 0.01%
RT* (min.) 3.9 (HPLC peak) [2, 4]: 0.32%
RT* (min.) 13.2 (azilsartan peak, purity by HPLC) [2, 4]: 99.51%
RT* (min.) 22.8 (HPLC peak) [2, 4]: 0.04%
RT* (min.) 23.6 (HPLC peak) [2, 4]: 0.01%
RT* (min.) 27.5 (HPLC peak) [2, 4]: 0.06%
RT* (min.) 30.66 (HPLC peak) [2, 4]: 0.02%
Appearance ([2]; 60° C., 6 days): White or off-
Crystalline form ([2]; 60° C., 6 days): Form A
RT* (min.) 2.89 (HPLC peak) ([2]; 60° C., 6 days): 0.02%
RT* (min.) 3.9 (HPLC peak) ([2]; 60° C., 6 days): 0.33%
RT* (min.) 5.79 (HPLC peak) ([2]; 60° C., 6 days): 0.01%
RT* (min.) 13.2 (azilsartan peak, purity by HPLC) ([2]; 60° C., 6 days): 99.47%
RT* (min.) 20.55 (HPLC peak) ([2]; 60° C., 6 days): 0.01%
RT* (min.) 22.8 (HPLC peak) ([2]; 60° C., 6 days): 0.04%
RT* (min.) 23.6 (HPLC peak) ([2]; 60° C., 6 days): 0.02%
RT* (min.) 26.96 (HPLC peak) ([2]; 60° C., 6 days): 0.01%
RT* (min.) 27.5 (HPLC peak) ([2]; 60° C., 6 days): 0.06%
RT* (min.) 28.81 (HPLC peak) ([2]; 60° C., 6 days): 0.01%
RT* (min.) 30.66 (HPLC peak) ([2]; 60° C., 6 days): 0.03%
Appearance ([2]; 60° C., 11 days): White or off-
Crystalline form ([2]; 60° C., 11 days): Form A
RT* (min.) 2.89 (HPLC peak) ([2]; 60° C., 11 days): 0.01%
RT* (min.) 3.9 (HPLC peak) ([2]; 60° C., 11 days): 0.35%
RT* (min.) 13.2 (azilsartan peak, purity by HPLC) ([2]; 60° C., 11 days): 99.48%
RT* (min.) 20.55 (HPLC peak) ([2]; 60° C., 11 days): 0.02%
RT* (min.) 22.8 (HPLC peak) ([2]; 60° C., 11 days): 0.04%
RT* (min.) 23.6 (HPLC peak) ([2]; 60° C., 11 days): 0.02%
RT* (min.) 27.5 (HPLC peak) ([2]; 60° C., 11 days): 0.07%
RT* (min.) 30.66 (HPLC peak) ([2]; 60° C., 11 days): 0.02%
Appearance ([2]; 60° C., 16 days): White or off-
Crystalline form ([2]; 60° C., 16 days): Form A
RT* (min.) 2.89 (HPLC peak) ([2]; 60° C., 16 days): 0.01%
RT* (min.) 3.9 (HPLC peak) ([2]; 60° C., 16 days): 0.35%
RT* (min.) 13.2 (azilsartan peak, purity by HPLC) ([2]; 60° C., 16 days): 99.47%
RT* (min.) 20.55 (HPLC peak) ([2]; 60° C., 16 days): 0.02%
RT* (min.) 22.8 (HPLC peak) ([2]; 60° C., 16 days): 0.04%
RT* (min.) 23.6 (HPLC peak) ([2]; 60° C., 16 days): 0.02%
RT* (min.) 27.5 (HPLC peak) ([2]; 60° C., 16 days): 0.07%
RT* (min.) 30.66 (HPLC peak) ([2]; 60° C., 16 days): 0.02%
Appearance [3]: Light yellow
Crystalline form [3]: Form A
RT* (min.) 2.39 (HPLC peak) [3]: 0.01%
RT* (min.) 2.89 (HPLC peak) [3]: 0.09%
RT* (min.) 3.9 (HPLC peak) [3]: 0.32%
RT* (min.) 13.2 (azilsartan peak, purity by HPLC) [3]: 99.45%
RT* (min.) 22.8 (HPLC peak) [3]: 0.04%
RT* (min.) 23.6 (HPLC peak) [3]: 0.01%
RT* (min.) 27.5 (HPLC peak) [3]: 0.06%
SMILES: CCOc1nc2cccc(C(=O)O)c2n1Cc1ccc(-c2ccccc2-c2noc(=O)[nH]2)cc1 [Form A]
RT* (min.) 2.39 (HPLC peak) [2, 4]: — (“—” refers to the peak area is less than 3000 or there is no peak)
RT* (min.) 5.79 (HPLC peak) [2, 4]: — (“—” refers to the peak area is less than 3000 or there is no peak)
RT* (min.) 20.55 (HPLC peak) [2, 4]: — (“—” refers to the peak area is less than 3000 or there is no peak)
RT* (min.) 26.96 (HPLC peak) [2, 4]: — (“—” refers to the peak area is less than 3000 or there is no peak)
RT* (min.) 28.81 (HPLC peak) [2, 4]: — (“—” refers to the peak area is less than 3000 or there is no peak)
RT* (min.) 2.39 (HPLC peak) ([2]; 60° C., 6 days): — (“—” refers to the peak area is less than 3000 or there is no peak)
RT* (min.) 2.39 (HPLC peak) ([2]; 60° C., 11 days): — (“—” refers to the peak area is less than 3000 or there is no peak)
RT* (min.) 5.79 (HPLC peak) ([2]; 60° C., 11 days): — (“—” refers to the peak area is less than 3000 or there is no peak)
RT* (min.) 26.96 (HPLC peak) ([2]; 60° C., 11 days): — (“—” refers to the peak area is less than 3000 or there is no peak)
RT* (min.) 28.81 (HPLC peak) ([2]; 60° C., 11 days): — (“—” refers to the peak area is less than 3000 or there is no peak)
RT* (min.) 2.39 (HPLC peak) ([2]; 60° C., 16 days): — (“—” refers to the peak area is less than 3000 or there is no peak)
RT* (min.) 5.79 (HPLC peak) ([2]; 60° C., 16 days): — (“—” refers to the peak area is less than 3000 or there is no peak)
RT* (min.) 26.96 (HPLC peak) ([2]; 60° C., 16 days): — (“—” refers to the peak area is less than 3000 or there is no peak)
RT* (min.) 28.81 (HPLC peak) ([2]; 60° C., 16 days): — (“—” refers to the peak area is less than 3000 or there is no peak)
RT* (min.) 5.79 (HPLC peak) [3]: — (“—” refers to the peak area is less than 3000 or there is no peak)
RT* (min.) 20.55 (HPLC peak) [3]: — (“—” refers to the peak area is less than 3000 or there is no peak)
RT* (min.) 26.96 (HPLC peak) [3]: — (“—” refers to the peak area is less than 3000 or there is no peak)
RT* (min.) 28.81 (HPLC peak) [3]: — (“—” refers to the peak area is less than 3000 or there is no peak)

Reference: US9174973B2, “Crystalline forms of azilsartan and preparation and uses thereof” (SUNSHINE LAKE PHARMA CO., LTD., priority 2011, dated 2015)
